The test system of test [1] is MIA PaCa-2 (human pancreatic carcinoma) cells. The test is described as follows: Cell Viability Assay (CellTiter-Glo), MIA PaCa-2. In kind it is cell-based. How it is done:
Serially-diluted compound or DMSO was added to the cells, and plates were incubated at 37° C., 5% CO2 for 72 h. Cell viability was measured using a CellTiter-Glo® Luminescent Cell Viability Assay kit (Promega) according to the manufacturer's protocol. The luminescence signal of treated samples was normalized to DMSO control, and data were analyzed using a 4-parameter logistic model to calculate IC50 values.
(Cellular ATP, detected with luciferase, serves as a proxy for viable cell number.)

Test [2] has as its system A549 (human lung carcinoma) cells. The test is described as follows: Cell Viability Assay (CellTiter-Glo), A549. In kind it is cell-based. The gist of the method:
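Cells grown in RPMI 1640 with 10% FBS were seeded at 1.67E+04 cells/mL and left overnight at 37° C., 5% CO2. They were then exposed to serially diluted compound for 72 h, after which CellTiter-Glo luminescence was read, normalized to DMSO, and fitted to a 4-parameter logistic model for IC50.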

A further test concerns the target KRAS G12C (Homo sapiens (Human), UniProt P01116, C118A/G12C). The test is described as follows: 2 h coupled exchange assay. In kind it is biochemical. As to conditions: Avg 2 h Coupled exchange IC50, 2 h compound pre-incubation. As to the method: The term “2 h coupled exchange assay” or “20 h coupled exchange assay” as used herein refers to the assay described in the Section entitled “BIOLOGICAL EVALUATION.”

[3] abbreviates: SOS-mediated nucleotide exchange.

For 20 compounds, IC50 results are on record in US20240059703A1 (AMGEN INC., priority 2021, published 2024).

A word on the IC50: it is the concentration that gives 50% inhibition.

Sequence of KRAS G12C (P01116 other isoform, or with tags, fused parts or gaps G12C/C118A): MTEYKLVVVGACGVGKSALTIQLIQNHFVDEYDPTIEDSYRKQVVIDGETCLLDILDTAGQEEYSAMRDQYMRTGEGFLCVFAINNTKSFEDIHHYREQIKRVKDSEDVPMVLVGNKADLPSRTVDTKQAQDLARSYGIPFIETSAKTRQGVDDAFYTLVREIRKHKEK

As for `C=CC(=O)N1CC2(CCN(c3nc4c(c(-c5c(O)cccc5F)c3C#N)CCC(c3scnc3C)=C4)C2)C1` (single isomer, unassigned) [Example 23-50, (P)-4-(2-fluoro-6-hydroxyphenyl)-7-(4-methyl-1,3-thiazol-5-yl)-2-(2-(2-propenoyl)-2,6-diazaspiro[3.4]octan-6-yl)-5,6-dihydro-3-quinolinecarbonitrile], the IC50 in test [1] (72 h) is 1.19 µM; in test [2] (Homo sapiens, A549, 72 h), over 5 µM; at KRAS G12C, 0.038 µM.
On to `C=CC(=O)N1CC2(CCN(c3nc4c(c(-c5c(O)cccc5F)c3C#N)CCC(c3scnc3C)=C4)C2)C1` (single isomer, unassigned) [Example 23-51, (M)-4-(2-fluoro-6-hydroxyphenyl)-7-(4-methyl-1,3-thiazol-5-yl)-2-(2-(2-propenoyl)-2,6-diazaspiro[3.4]octan-6-yl)-5,6-dihydro-3-quinolinecarbonitrile], for which the values for the IC50 (in test [1] (72 h); in test [2] (72 h); against KRAS G12C) were 6.22 µM, 9.64 µM and 127 µM, respectively.
As for `C=CC(=O)N1CC2(CCN(c3nc4c(c(-c5c(C)ccc6[nH]ncc56)c3C#N)CCC(C)(C)C4)[C@@H]2CF)C1` (stereo in doubt) [Example 13-79, (M)-2-((5R)-5-(fluoromethyl)-2-(2-propenoyl)-2,6-diazaspiro[3.4]octan-6-yl)-7,7-dimethyl-4-(5-methyl-1H-indaazol-4-yl)-5,6,7,8-tetrahydro-3-quinolinecarbonitrile and (P)-((5S)-5-(fluoromethyl)-2-(2-propenoyl)-2,6-diazaspiro[3.4]octan-6-yl)-7,7-dimethyl-4-(5-methyl-1H-indazol-4-yl)-5,6,7,8-tetrahydro-3-quinolinecarbonitrile], the IC50 in test [1] (Homo sapiens, MIA PaCa-2, 72 h) came out at 8.23 µM; in test [2] (Homo sapiens, A549, 72 h), 7.45 µM; at KRAS G12C (setting [3]), 0.433 µM.
The matching figures for `C=CC(=O)N1CC2(CCN(c3nc4c(c(-c5c(C)ccc6[nH]ncc56)c3C#N)CCC(C)(C)C4)[C@H]2CF)C1` (stereo in doubt) [Example 13-80, (M)-2-((5S)-5-(fluoromethyl)-2-(2-propenoyl)-2,6-diazaspiro[3.4]octan-6-yl)-7,7-dimethyl-4-(5-methyl-1H-indazol-4-yl)-5,6,7,8-tetrahydro-3-quinolinecarbonitrile and (P)-2-((5R)-5-(fluoromethyl)-2-(2-propenoyl)-2,6-diazaspiro[3.4]octan-6-yl)-7,7-dimethyl-4-(5-methyl-1H-indazol-4-yl)-5,6,7,8-tetrahydro-3-quinolinecarbonitrile]: 0.952 µM, over 5 µM and 0.045 µM.
As to `C=CC(=O)N1CC2(CCN(c3nc4c(c(-c5cc(O)ccc5C)c3C#N)[C@H]3CC[C@@H]4C3)C2)C1` (stereo in doubt) [Example 14-9, (1R,8S)-6-(5-hydroxy-2-methylphenyl)-4-(2-(2-propenoyl)-2,6-diazaspiro[3.4]octan-6-yl)-3-azatricyclo[6.2.1.0^2,7]undeca-2,4,6-triene-5-carbonitrile], the half-maximal inhibitory concentration (IC50) in test [1] (Homo sapiens, MIA PaCa-2, 72 h) turned out to be 0.569 µM; in test [2] (Homo sapiens, A549, 72 h) it was 10.4 µM; against KRAS G12C (setting [3]) it was 0.091 µM.
As to `C=CC(=O)N1CC2(CCN(c3nc4c(c(-c5cc(O)cc6ccccc56)n3)CCCC4)C2)C1` [Example 1-1, 1-(6-(4-(3-hydroxynaphthalen-1-yl)-5,6,7,8-tetrahydroquinazolin-2-yl)-2,6-diazaspiro[3.4]octan-2-yl)prop-2-en-1-one], the IC50 in test [1] (Homo sapiens, MIA PaCa-2, 72 h) was over 5 µM; in test [2] (Homo sapiens, A549, 72 h), over 5 µM; on KRAS G12C (setting [3]), 0.431 µM.
Regarding `C=CC(=O)N1CC2(CCN(c3cc4ccccc4c(-c4c(C)ccc5[nH]ncc45)c3C#N)C2)C1` [Example 1-2, 3-(2-acryloyl-2,6-diazaspiro[3.4]octan-6-yl)-1-(5-methyl-1H-indazol-4-yl)-2-naphthonitrile], the half-inhibitory concentration (IC50) in test [1] (Homo sapiens, MIA PaCa-2, 72 h) is 0.58 µM; in test [2] (Homo sapiens, A549, 72 h), 3.71 µM; on KRAS G12C (setting [3]) it was 0.158 µM.
Take `C=CC(=O)N1CC2(CCN(c3nc4c(c(-c5c(C)ccc6[nH]ncc56)c3C#N)CCC4)C2)C1` [Example 1-3, 4-(5-methyl-1H-indazol-4-yl)-2-(2-(2-propenoyl)-2,6-diazaspiro[3.4]octan-6-yl)-6,7-dihydro-5H-cyclopenta[b]pyridine-3-carbonitrile]: the half-maximal inhibitory concentration (IC50) in test [1] (Homo sapiens, MIA PaCa-2, 72 h) came to 0.847 µM; in test [2] (Homo sapiens, A549, 72 h), 7.42 µM; against KRAS G12C (setting [3]), 0.154 µM.
In the case of `C=CC(=O)N1CC2(CCN(c3nc4c(F)cccc4c(-c4c(C)ccc5[nH]ncc45)c3C#N)C2)C1` [Example 1-4, 8-fluoro-4-(5-methyl-1H-indazol-4-yl)-2-(2-(2-propenoyl)-2,6-diazaspiro[3.4]octan-6-yl)-3-quinolinecarbonitrile], the IC50 was found to be 1.39 µM in test [1] (Homo sapiens, MIA PaCa-2, 72 h); 4.94 µM in test [2] (Homo sapiens, A549, 72 h); 0.29 µM against KRAS G12C (setting [3]).
For `C=CC(=O)N1CC2(CCN(c3cn4ccnc4c(-c4c(C)ccc5[nH]ncc45)c3C#N)C2)C1` [Example 1-5], in that order: 1.63 µM, 50 µM and 0.52 µM.
For `C=CC(=O)N1CC2(CCN(c3nc4c(C)cccc4c(-c4c(C)ccc5[nH]ncc45)c3C#N)C2)C1` [Example 1-6, 8-methyl-4-(5-methyl-1H-indazol-4-yl)-2-(2-(2-propenoyl)-2,6-diazaspiro[3.4]octan-6-yl)-3-quinolinecarbonitrile], in that order: 1.14 µM, 6.44 µM and 1.89 µM.
The matching figures for `C=CC(=O)N1CC2(CCN(c3nc4c(c(-c5cccc6cccc(C)c56)n3)CCCC4)C2)C1` [Example 1-7, 1-(6-(4-(8-methyl-1-naphthalenyl)-5,6,7,8-tetrahydro-2-quinazolinyl)-2,6-diazaspiro[3,4]octan-2-yl)-2-propen-1-one]: over 5 µM, over 5 µM and 0.997 µM.
Regarding `C=CC(=O)N1CC2(CCN(c3nc4c(c(-c5cccc6cccc(Cl)c56)n3)CCCC4)C2)C1` [Example 1-9, 1-(6-(4-(8-chloro-1-naphthalenyl)-5,6,7,8-tetrahydro-2-quinazolinyl)-2,6-diazaspiro[3.4]octan-2-yl)-2-propen-1-one], the IC50 in test [1] (Homo sapiens, MIA PaCa-2, 72 h) is 18.1 µM; in test [2] (Homo sapiens, A549, 72 h) it was over 25 µM; on KRAS G12C (setting [3]), 4.58 µM.
For `C=CC(=O)N1CC2(CCN(c3nc4c(c(-c5c(C)ccc6[nH]ncc56)n3)CCC(C)C4)C2)C1` (stereo not drawn) [Example 1-11, 1-(6-((7)-7-methyl-4-(5-methyl-1H-indazol-4-yl)-5,6,7,8-tetrahydro-2-quinazolinyl)-2,6-diazaspiro[3.4]octan-2-yl)-2-propen-1-one], in that order: over 5 µM, over 5 µM and 3.09 µM.
The matching figures for `C=CC(=O)N1CC2(CCN(c3nc4c(c(-c5c(C)ccc6ccccc56)n3)CCCC4)C2)C1` [Example 1-12, 1-(6-(4-(2-methyl-1-naphthalenyl)-5,6,7,8-tetrahydro-2-quinazolinyl)-2,6-diazaspiro[3.4]octan-2-yl)-2-propen-1-one]: 5.39 µM, 7.23 µM and 2.59 µM.
For `C=CC(=O)N1CC2(C1)CN(c1nc3c(F)cccc3c(-c3c(C)ccc4[nH]ncc34)c1C#N)CC2F` (stereo not drawn) [Example 1-13, 8-fluoro-2-((8)-8-fluoro-2-(2-propenoyl)-2,6-diazaspiro[3.4]octan-6-yl)-4-(5-methyl-1H-indazol-4-yl)-3-quinolinecarbonitrile], the half-maximal inhibitory concentration (IC50) is 1.88 µM in test [1] (Homo sapiens, MIA PaCa-2, 72 h); 3.12 µM in test [2] (Homo sapiens, A549, 72 h); 0.601 µM on KRAS G12C (setting [3]).
For `C#CC(=O)N1CC2(CCN(c3nc4c(F)cccc4c(-c4c(C)ccc5[nH]ncc45)c3C#N)C2)C1` [Example 1-14, 8-fluoro-4-(5-methyl-1H-indazol-4-yl)-2-(2-(2-propynoyl)-2,6-diazaspiro[3.4]octan-6-yl)-3-quinolinecarbonitrile], in that order: 0.069 µM, 1.09 µM and 0.327 µM.
For `C=CC(=O)N1CC2(CCN(c3nc(-c4c(C)ccc5[nH]ncc45)c4c(n3)C(C)CCC4)C2)C1` (stereo not drawn) [Example 1-15, 1-(6-((8)-8-methyl-4-(5-methyl-1H-indazol-4-yl)-5,6,7,8-tetrahydro-2-quinazolinyl)-2,6-diazaspiro[3.4]octan-2-yl)-2-propen-1-one], in that order: over 5 µM, over 5 µM and 9.06 µM.
For `C=CC(=O)N1CC2(CCN(c3nc4c(c(-c5c(C)ccc6cn[nH]c56)n3)CCCC4)C2)C1` [Example 1-16, 1-(6-(4-(6-methyl-1H-indazol-7-yl)-5,6,7,8-tetrahydro-2-quinazolinyl)-2,6-diazaspiro[3.4]octan-2-yl)-2-propen-1-one], in that order: 10.3 µM, over 25 µM and 6.72 µM.
Take `C=CC(=O)N1CC2(CCN(c3nc4c(c(-c5c(C)ccc6[nH]ncc56)n3)CCCC4)C2)C1` [Example 1-17, 1-(6-(4-(5-methyl-1H-indazol-4-yl)-5,6,7,8-tetrahydro-2-quinazolinyl)-2,6-diazaspiro[3.4]octan-2-yl)-2-propen-1-one]: the 50% inhibitory concentration (IC50) in test [1] (Homo sapiens, MIA PaCa-2, 72 h) is over 5 µM; in test [2] (Homo sapiens, A549, 72 h), over 5 µM; at KRAS G12C (setting [3]), 5.76 µM.
